Where “and” joins values, the source holds several entries; their conditions need not be identical. Identical values can stand only once. Like-named read-outs stand apart in the source and are kept apart here. Where a SMILES comes first, the peptide text is derived from it. The star is where a group is joined. Cbz = O=C(OCc1ccccc1)*

The target in assay [1] is Muscle and erythrocyte calpain. Put plainly: In Vitro Assay of Calpain (fluorometric, t-Boc-Val-Leu-Lys-7-amido-4-methyl-coumarin substrate). The assay is classed as biochemical. The settings on record: In Vitro Calpain Inhibition. The protocol: In Vitro Assay of Calpain in the Prescence of Calpain Inhibitors
Muscle and erythrocyte calpain were assayed by a fluorometric procedure using t-Boc-Val-Leu-Lys-7-amido-4-methyl-coumarin as the substrate, Sasaki et al., J. Biol. Chem. 259, 12489-12494 (1984). The enzyme calpain is commercially available and may be purchased from Sigma. The assay buffer, pH, assay techniques and calculation of the inhibitory constant (Ki) are similar to those described by Mehdi et al., Biochem. Biophys. Res. Commun. 157, 1117-1123 (1988).

In assay [2] the test system is male spontaneously hypertensive rats. The assay is described as follows: Neuroprotection in vivo, focal cerebral ischemia by permanent tandem occlusion of right middle cerebral artery and right common carotid artery. Also noted: species or system rat (spontaneously hypertensive). The protocol: Neuroprotection In Vivo With MDL 104,903 In a Model of Focal Cerebral Ischemia
For example, twelve male spontaneously hypertensive rats were divided into two groups: a vehicle-treated group and a calpain inhibitor-treated groups (MDL 104,903; 4×30 mg/kg cumulative doses). Ischemia was induced by permanent tandem occlusion of the right middle cerebral artery and right common carotid artery. Animals were killed 24 hours after surgery, and quantitative measurements of infarction volumes were performed using standard histological techniques and quantitative image analysis.

In assay [3] the target is calpain. The settings on record: broken membrane preparations; cited from earlier work.
Assay [4] concerns calpain. The settings on record: cited from earlier work.
The subject of a further assay is rats. The settings on record: cited from earlier work.
The test system of assay [5] is proteolytic response to post-decapitation ischemia. The settings on record: cited from earlier work.
Setting [6] is: individual animal, inhibitor-treated group, 4×30 mg/kg I.V., 24 hours after surgery, 30 mg/kg.

For the molecule `CCCC(=O)O[C@@H]1OCN(C(=O)[C@@H](NC(=O)OCc2ccccc2)C(C)C)[C@H]1Cc1ccccc1` [MDL 103,821, [4S-[3(R*),4α,5β]]-[1-[[5-butyryloxy)-4-(phenylmethyl)-3-oxazolidinyl]carbonyl]-2-methylpropyl]-carbamic acid, phenylmethyl ester], the Ki (in general, the dissociation constant of the complex between target and ligand, obtained from inhibition or displacement) in assay [1] was determined as 1300 nM. That is a single-digit micromolar value.
On the same count and under the same terms, in the case of `COc1ccc(CC(=O)O[C@@H]2OCN(C(=O)[C@@H](NC(=O)OCc3ccccc3)C(C)C)[C@H]2Cc2ccccc2)cc1` [MDL 105,236, [4S-[3(R*),4α,5β]]-[1-[[5-(4-methoxyphenyl-acetyloxy)--4-(phenylmethyl)-3-oxazolidinyl]carbonyl]-2-methylpropyl-1]-carbamic acid, phenylmethyl ester] it was 1100 nM; in that of `CC(C)[C@H](NC(=O)OCc1ccccc1)C(=O)N1CO[C@@H](OC(=O)N2CCOCC2)[C@@H]1Cc1ccccc1` [MDL 105,803, [4S-[3(R*),4α,5β]]-3-[3-methyl-1-oxo-2-[[(phenylmethoxy)carbonyl]amino]butyl]-4-(phenylmethyl)-5-oxazolidinyl ester, 4-morpholinecarboxylic acid], 2000 nM.
`CC(C)[C@H](NC(=O)OCc1ccccc1)C(=O)N1CO[C@@H](O)[C@@H]1Cc1ccccc1` [MDL 104,903, [4S-[3(R*),4α,5β]]-[1-[[5-hydroxy-4-(phenylmethyl)-3-oxazolidinyl]carbonyl]-2-methylpropyl]-carbamic acid, phenylmethyl ester]: the affinity in assay [1], expressed as Ki, was 33 nM. Also, the “reduction in infarct volume” value in assay [2] (4×30 mg/kg I.V. doses via femoral vein at 2 hour intervals beginning 5 min. after initiation of ischemia, 24 hours after surgery) turned out to be 20.5%. Further, in assay [2] (comparison of mean values with vehicle group, 4×30 mg/kg I.V.), the “% of Reduction (Percentage of Infarct Reduction)” value is on record as 20.24%. For the same molecule, in assay [2] (individual animal, inhibitor-treated group, 4×30 mg/kg I.V. at 2 hour intervals from 5 min after ischemia, 24 hours after surgery, 30 mg/kg), the “Brain Volume” value was 1307.52 mm^3 and 1309.36 mm^3 and 1257.24 mm^3 and 1313.62 mm^3 and 1333.44 mm^3 and 1326.46 mm^3. Further, in assay [2] (setting [6]), the “Infarct Vol. v. Brain Vol.” value was 12.61% and 14.14% and 13.59% and 10.07% and 10.93%; the “Infarct Volume” value is 164.94 mm^3 and 185.16 mm^3 and 170.84 mm^3 and 178.58 mm^3 and 134.28 mm^3 and 144.92 mm^3. In addition, in assay [2] (mean of inhibitor-treated group (animals 7-12), 4×30 mg/kg I.V., vehicle mean 15.66), the “Infarct Vol. v. Brain Vol., mean” value is 12.49%. Moreover, the “Infarct Volume, mean” value in assay [2] (mean of inhibitor-treated group (animals 7-12), 4×30 mg/kg I.V., vehicle mean 205.14) was determined as 163.12 mm^3. Also, the “Brain Volume, mean” value in assay [2] (mean of inhibitor-treated group (animals 7-12), 4×30 mg/kg I.V., vehicle mean 1310.15) is on record as 1307.94 mm^3.
With `CCOC(=O)CCC(=O)O[C@@H]1OCN(C(=O)[C@@H](NC(=O)OCc2ccccc2)C(C)C)[C@H]1Cc1ccccc1` [MDL 105,608, [4S-[3(R*),4α,5β]]-[1-[[5-(ethylsuccinyloxy)-4-(phenylmethyl)-3-oxazolidinyl]carbonyl]-2-methylpropyl]-carbamic acid, phenylmethyl ester], the inhibition constant (Ki) in assay [1] was 700 nM.
Still for that read-out and setting: in the case of `CCCCC(CC)C(=O)O[C@@H]1OCN(C(=O)[C@@H](NC(=O)OCc2ccccc2)C(C)C)[C@H]1Cc1ccccc1` (stereo partly drawn) [MDL 104,092, [4S-[3(R*),4α,5β]]-[1-[[5-(2-ethylhexanoyl-oxy)-4-(phenylmethyl)-3-oxazolidinyl]carbonyl]-2-methylpropyl]-carbamic acid, phenylmethyl ester] it was 300 nM.
With `CC(C)[C@H](NC(=O)OCc1ccccc1)C(=O)N[C@H](C=O)Cc1ccccc1` [Cbz-Val-Phe-H] (Cbz-Val-Phe-aldehyde), the Ki for calpain result on calpain [3] and on calpain [4] (intact cell systems) was “low” throughout. For the same molecule, in the assay on calpain [4] (inhibitor of calpain), the cell penetration result is “cell-penetrating”. The “reduction of infarction, edema, and calcium-activated proteolysis” value with rats (intravenous injections, cumulative doses of 30 mg/kg or 60 mg/kg) is “effective in reducing infarction, edema, and calcium-activated proteolysis”. In addition, the “volumes of cerebral infarction” value in the assay with rats (rats, versus saline-treated or vehicle-treated control animals) is on record as “significantly smaller”. Also, in assay [5], the “proteolytic response to post-decapitation ischemia” value is listed as “reduced”.
The molecule “[4S-[3(R*),4α,5β]]-[1-[[5-(propionyloxy)-4-(phenylmethyl)-3-oxazolidinyl]carbonyl]-2-methylpropyl]-carbamic acid, phenylmethyl ester [MDL 105,387]” returned a Ki in assay [1] of 1200 nM.
As to `CC(=O)O[C@@H]1OCN(C(=O)[C@@H](NC(=O)OCc2ccccc2)C(C)C)[C@H]1Cc1ccccc1` [MDL 104,860, [4S-[3(R*),4α,5β]]-[1-[[5-(acetyloxy)-4-(phenylmethyl)-3-oxazolidinyl]carbonyl]-2-methylpropyl]carbamic acid, phenylmethyl ester], the Ki in assay [1] came out at 1450 nM.
For the molecule `CC(C)[C@@H](C(=O)N1CO[C@@H](O)[C@@H]1Cc1ccccc1)N(C)C(=O)OCc1ccccc1` [MDL 105,423, [4S-[3(R*),4α,5β]]-[1-[[5-hydroxy-4-(phenylmethyl-3-oxazolidinyl]carbonyl]-2-methylpropyl]methyl-carbamic acid, phenylmethyl ester], in assay [1], the affinity corresponds to a Ki of 2100 nM.

The values above are taken from US5691368A, “Substituted oxazolidine calpain and/or cathepsin B inhibitors” (Hoechst Marion Roussel, Inc., priority 1995, dated 1997).
